From patent US9695155B2, “Herbicidal substituted pyrimidinyloxy benzene compounds” (E. I. DU PONT DE NEMOURS AND COMPANY, priority 2013, dated 2017)

How the values were obtained:
lambsquarters = test: Test D postemergence; format: in vivo, Chenopodium album
Excerpt: (§1) Seeds of plant species selected from bluegrass (annual bluegrass, Poa annua), blackgrass (Alopecurus myosuroides), canarygrass (littleseed canarygrass, Phalaris minor), chickweed (common chickweed, Stellaria media), galium (catchweed bedstraw, Galium aparine), bromegrass, downy (downy bromegrass, Bromus tectorum), field poppy (Papaver rhoeas), field violet (Viola arvensis), green foxtail (Setaria viridis), deadnettle (henbit deadnettle, Lamium amplexicaule), Italian ryegrass (Lolium multiflorum), kochia (Kochia scoparia), lambsquarters (Chenopodium album), oilseed rape (Brassica napus), pigweed (Amaranthus retroflexus), chamomile (scentless chamomile, Matricaria inodora), Russian thistle (Salsola kali), speedwell (bird's-eye speedwell, Veronica persica), spring barley (Hordeum vulgare), spring wheat (Triticum aestivum), wild buckwheat (Polygonum convolvulus), wild mustard (Sinapis arvensis), wild oat (Avena fatua), wild radish (Raphanus raphanistrum), windgrass (Apera spica-venti), winter barley (Hordeum vulgare), and winter wheat (Triticum aestivum) were planted into a silt loam soil and treated preemergence with test chemicals formulated in a non-phytotoxic solvent mixture which included a surfactant.
(§2) At the same time, these species were planted in pots containing Redi-Earth® planting medium (Scotts Company, 14111 Scottslawn Road, Marysville, Ohio 43041) comprising spaghnum peat moss, vermiculite, wetting agent and starter nutrients and treated with postemergence applications of the test chemicals formulated in the same manner. Plants ranged in height from 2 to 18 cm (1- to 4-leaf stage). Treated plants and controls were maintained in a controlled growth environment for 7 to 21 days after which time all species were compared to controls and visually evaluated. Plant response ratings, summarized in Table D, are based on a scale of 0 to 100 where 0 is no effect and 100 is complete control. A dash (-) response means no test result.

kochia = test: Test D preemergence; format: in vivo, Kochia scoparia
Excerpt: as §1, §2

chickweed = test: Test D preemergence; format: in vivo, Stellaria media
Excerpt: as §1, §2

galium [1] = test: Test D preemergence; format: in vivo, Galium aparine
Excerpt: as §1, §2

green foxtail = test: Test D preemergence; format: in vivo, Setaria viridis
Excerpt: as §1, §2

Italian ryegrass = test: Test D postemergence; format: in vivo, Lolium multiflorum
Excerpt: as §1, §2

galium [2] = test: Test D postemergence; format: in vivo, Galium aparine
Excerpt: as §1, §2

[3] = 31 g ai/ha, scale 0 to 100 (0 no effect, 100 complete control)
[4] = 62 g ai/ha, scale 0 to 100 (0 no effect, 100 complete control)
[5] = 125 g ai/ha, scale 0 to 100 (0 no effect, 100 complete control)
[6] = 250 g ai/ha, scale 0 to 100 (0 no effect, 100 complete control)
[7] = 16 g ai/ha, scale 0 (no effect) to 100 (complete control)

Structure (SMILES): Clc1cnc(Oc2ccccc2-n2cc(Cl)cn2)nc1 [Compound 3]
- Plant response rating, Lambsquarters (lambsquarters; 16 g ai/ha, scale 0-100): 25
- Plant response rating, Lambsquarters (lambsquarters; [3]): 20
- Plant response rating, Lambsquarters (lambsquarters; [4]): 60
- Plant response rating, Lambsquarters (lambsquarters; [5]): 80
- Plant response rating, Lambsquarters (lambsquarters; [6]): 85
- Plant response rating, Kochia (kochia; [7]): 0
- Plant response rating, Kochia (kochia; 31 g ai/ha, scale 0-100): 30
- Plant response rating, Kochia (kochia; 62 g ai/ha, scale 0-100): 30
- Plant response rating, Kochia (kochia; 125 g ai/ha, scale 0-100): 30
- Plant response rating, Kochia (kochia; 250 g ai/ha, scale 0-100): 50
- Plant response rating, Chickweed (chickweed; [7]): 0
- Plant response rating, Chickweed (chickweed; 62 g ai/ha, scale 0-100): 0
- Plant response rating, Chickweed (chickweed; 250 g ai/ha, scale 0-100): 90
- Plant response rating, Galium (galium [1]; [7]): 0
- Plant response rating, Galium (galium [1]; 31 g ai/ha, scale 0-100): 0
- Plant response rating, Galium (galium [1]; 62 g ai/ha, scale 0-100): 10
- Plant response rating, Galium (galium [1]; 125 g ai/ha, scale 0-100): 70
- Plant response rating, Galium (galium [1]; 250 g ai/ha, scale 0-100): 100
- Plant response rating, Foxtail, Green (green foxtail; [7]): 10
- Plant response rating, Foxtail, Green (green foxtail; 62 g ai/ha, scale 0-100): 10
- Plant response rating, Foxtail, Green (green foxtail; 125 g ai/ha, scale 0-100): 10
- Plant response rating, Foxtail, Green (green foxtail; 250 g ai/ha, scale 0-100): 30
- Plant response rating, Ryegrass, Italian (Italian ryegrass; 16 g ai/ha, scale 0-100): 60
- Plant response rating, Ryegrass, Italian (Italian ryegrass; [3]): 0
- Plant response rating, Ryegrass, Italian (Italian ryegrass; [4]): 0
- Plant response rating, Ryegrass, Italian (Italian ryegrass; [5]): 0
- Plant response rating, Ryegrass, Italian (Italian ryegrass; [6]): 0
- Plant response rating, Galium (galium [2]; 16 g ai/ha, scale 0-100): 40
- Plant response rating, Galium (galium [2]; [3]): 30
- Plant response rating, Galium (galium [2]; [4]): 40
- Plant response rating, Galium (galium [2]; [5]): 45
- Plant response rating, Galium (galium [2]; [6]): 75

Structure (SMILES): FC(F)(F)c1cnn(-c2ccccc2Oc2ncc(Br)cn2)c1 [Compound 18, 5-bromo-2-[2-[4-(trifluoromethyl)-1H-pyrazol-1-yl]phenoxy]pyrimidine]
- pest or weed control at 16 g/ha (lambsquarters; Chenopodium album, post-emergence, 16 g ai/ha, scale 0-100, read-out: Plant response rating, Lambsquarters): 15%
- pest or weed control at 31 g/ha (lambsquarters; Chenopodium album, post-emergence, 31 g ai/ha, scale 0 to 100 (0 no effect, 100 complete control), read-out: Plant response rating, Lambsquarters): 50%
- pest or weed control at 62 g/ha (lambsquarters; Chenopodium album, post-emergence, 62 g ai/ha, scale 0 to 100 (0 no effect, 100 complete control), read-out: Plant response rating, Lambsquarters): 90%
- pest or weed control at 125 g/ha (lambsquarters; Chenopodium album, post-emergence, 125 g ai/ha, scale 0 to 100 (0 no effect, 100 complete control), read-out: Plant response rating, Lambsquarters): 95%
- pest or weed control at 250 g/ha (lambsquarters; Chenopodium album, post-emergence, 250 g ai/ha, scale 0 to 100 (0 no effect, 100 complete control), read-out: Plant response rating, Lambsquarters): 95%
- pest or weed control at 16 g/ha (kochia; Bassia scoparia, pre-emergence, 16 g ai/ha, scale 0 (no effect) to 100 (complete control), read-out: Plant response rating, Kochia): 15%
- pest or weed control at 31 g/ha (kochia; Bassia scoparia, pre-emergence, 31 g ai/ha, scale 0-100, read-out: Plant response rating, Kochia): 90%
- pest or weed control at 62 g/ha (kochia; Bassia scoparia, pre-emergence, 62 g ai/ha, scale 0-100, read-out: Plant response rating, Kochia): 75%
- pest or weed control at 125 g/ha (kochia; Bassia scoparia, pre-emergence, 125 g ai/ha, scale 0-100, read-out: Plant response rating, Kochia): 100%
- pest or weed control at 250 g/ha (kochia; Bassia scoparia, pre-emergence, 250 g ai/ha, scale 0-100, read-out: Plant response rating, Kochia): 100%
- pest or weed control at 125 g/ha (chickweed; Stellaria media, pre-emergence, 125 g ai/ha, scale 0-100, read-out: Plant response rating, Chickweed): 90%
- pest or weed control at 250 g/ha (chickweed; Stellaria media, pre-emergence, 250 g ai/ha, scale 0-100, read-out: Plant response rating, Chickweed): 100%
- pest or weed control at 16 g/ha (galium [1]; Galium, pre-emergence, 16 g ai/ha, scale 0 (no effect) to 100 (complete control), read-out: Plant response rating, Galium): 0%
- pest or weed control at 31 g/ha (galium [1]; Galium, pre-emergence, 31 g ai/ha, scale 0-100, read-out: Plant response rating, Galium): 15%
- pest or weed control at 62 g/ha (galium [1]; Galium, pre-emergence, 62 g ai/ha, scale 0-100, read-out: Plant response rating, Galium): 80%
- pest or weed control at 125 g/ha (galium [1]; Galium, pre-emergence, 125 g ai/ha, scale 0-100, read-out: Plant response rating, Galium): 100%
- pest or weed control at 250 g/ha (galium [1]; Galium, pre-emergence, 250 g ai/ha, scale 0-100, read-out: Plant response rating, Galium): 100%
- pest or weed control at 16 g/ha (green foxtail; Setaria viridis, pre-emergence, 16 g ai/ha, scale 0 (no effect) to 100 (complete control), read-out: Plant response rating, Foxtail, Green): 5%
- pest or weed control at 31 g/ha (green foxtail; Setaria viridis, pre-emergence, 31 g ai/ha, scale 0-100, read-out: Plant response rating, Foxtail, Green): 15%
- pest or weed control at 62 g/ha (green foxtail; Setaria viridis, pre-emergence, 62 g ai/ha, scale 0-100, read-out: Plant response rating, Foxtail, Green): 50%
- pest or weed control at 125 g/ha (green foxtail; Setaria viridis, pre-emergence, 125 g ai/ha, scale 0-100, read-out: Plant response rating, Foxtail, Green): 95%
- pest or weed control at 250 g/ha (green foxtail; Setaria viridis, pre-emergence, 250 g ai/ha, scale 0-100, read-out: Plant response rating, Foxtail, Green): 100%
- pest or weed control at 16 g/ha (Italian ryegrass; Lolium multiflorum, post-emergence, 16 g ai/ha, scale 0-100, read-out: Plant response rating, Ryegrass, Italian): 5%
- pest or weed control at 31 g/ha (Italian ryegrass; Lolium multiflorum, post-emergence, 31 g ai/ha, scale 0 to 100 (0 no effect, 100 complete control), read-out: Plant response rating, Ryegrass, Italian): 5%
- pest or weed control at 62 g/ha (Italian ryegrass; Lolium multiflorum, post-emergence, 62 g ai/ha, scale 0 to 100 (0 no effect, 100 complete control), read-out: Plant response rating, Ryegrass, Italian): 5%
- pest or weed control at 125 g/ha (Italian ryegrass; Lolium multiflorum, post-emergence, 125 g ai/ha, scale 0 to 100 (0 no effect, 100 complete control), read-out: Plant response rating, Ryegrass, Italian): 10%
- pest or weed control at 250 g/ha (Italian ryegrass; Lolium multiflorum, post-emergence, 250 g ai/ha, scale 0 to 100 (0 no effect, 100 complete control), read-out: Plant response rating, Ryegrass, Italian): 15%
- pest or weed control at 16 g/ha (galium [2]; Galium, post-emergence, 16 g ai/ha, scale 0-100, read-out: Plant response rating, Galium): 40%
- pest or weed control at 31 g/ha (galium [2]; Galium, post-emergence, 31 g ai/ha, scale 0 to 100 (0 no effect, 100 complete control), read-out: Plant response rating, Galium): 60%
- pest or weed control at 62 g/ha (galium [2]; Galium, post-emergence, 62 g ai/ha, scale 0 to 100 (0 no effect, 100 complete control), read-out: Plant response rating, Galium): 70%
- pest or weed control at 125 g/ha (galium [2]; Galium, post-emergence, 125 g ai/ha, scale 0 to 100 (0 no effect, 100 complete control), read-out: Plant response rating, Galium): 65%
- pest or weed control at 250 g/ha (galium [2]; Galium, post-emergence, 250 g ai/ha, scale 0 to 100 (0 no effect, 100 complete control), read-out: Plant response rating, Galium): 70%
